Where a name gives a salt, the structure may show the parent alone.
Legend:
5-HT1A receptor = target: T1, 5-HT1A receptor (Rattus norvegicus, UniProt P19327); test: 5-HT1A receptor in vitro binding ([3H]8-OH-DPAT, rat hippocampal membranes); design: species or system male Sprague-Dawley rats; conditions: inhibition of [3H]8-OH-DPAT (1.0 nM) binding by 50%, pH 7.4, 10 min at 37° C.
T1 construct: the brains were rapidly chilled and dissected to obtain the hippocampi; from tissue; host or cells: hippocampal membranes of male Sprague-Dawley rats
T1 sequence (P19327 1-422): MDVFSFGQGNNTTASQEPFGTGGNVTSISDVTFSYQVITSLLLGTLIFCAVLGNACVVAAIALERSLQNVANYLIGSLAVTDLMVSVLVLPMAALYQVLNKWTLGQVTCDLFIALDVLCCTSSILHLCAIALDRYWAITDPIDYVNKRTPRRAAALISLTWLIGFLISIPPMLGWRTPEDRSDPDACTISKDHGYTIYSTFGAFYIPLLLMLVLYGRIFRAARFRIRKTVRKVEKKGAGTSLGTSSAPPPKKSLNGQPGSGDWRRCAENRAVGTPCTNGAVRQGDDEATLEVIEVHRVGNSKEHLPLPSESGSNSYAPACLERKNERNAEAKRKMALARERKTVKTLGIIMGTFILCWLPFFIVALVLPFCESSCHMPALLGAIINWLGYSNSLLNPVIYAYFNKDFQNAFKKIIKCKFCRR
Protocol: The affinities of certain of the compounds of Formula 1 at the central 5-HT1A receptors were determined using a modification of the binding assay described by Taylor et al., J. Pharmacol. Exp. Ther. 236, 118-125 (1986). Membranes for the binding assay were prepared from male Sprague-Dawley rats (150-250 g). The animals were killed by decapitation, and the brains were rapidly chilled and dissected to obtain the hippocampi. Membranes from the hippocampi were either prepared that day, or the hippocampi were stored frozen (-70° C.) until the day of preparation. The membranes were prepared by homogenizing the tissue in 40 volumes of ice-cold Tris-HCl buffer (50 mM, pH 7.4 at 22° C.) using a Techmar Tissumizer (setting 65 for 15 sec), and the homogenate was centrifuged at 39800× g for 10 minutes. The resulting pellet was then resuspended in the same buffer, and the centrifugation and resuspension process was repeated three additional times to wash the membranes. Between the second and third washes the resuspended membranes were incubated for 10 minutes at 37° C. to facilitate the removal of endogenous ligands. The final pellet was resuspended in 67 mM Tris-HCl, pH 7.4, to a concentration of 2 mg of tissue original wet weight/200 μl. This homogenate was stored frozen (-70° C.) until the day of the binding assay. […] The assay tubes were incubated for 10 minutes at 37° C. and the contents were then rapidly filtered through GF/B filters (pretreated with 0.5% polyethylenimine), followed by four 1 ml washes with ice-cold buffer. The radioactivity trapped by the filters was quantitated by liquid scintillation spectrometry, and specific [^3 H]8-OH-DPAT binding to the 5-HT1A sites was defined as the difference between [^3 H]8-OH-DPAT bound in the presence and absence of 10 μM 5-HT.
In Table 1, the first column provides the Example Number of the compound evaluated while the second column provides the amount of test compound (expressed in nanomolar concentration) required to inhibit the binding of [^3 H]8-OH-DPAT by 50% (indicated as IC50).

5-HT1D receptor = 5-HT1D receptor in vitro binding ([3H]5-HT, bovine caudate membranes); conditions: inhibition of [3H]5-HT (1.7-1.9 nM) binding by 50%, 8-OH-DPAT and mesulergine (100 nM each) as masks, pH 7.4, 10 min at 37° C.
Protocol: The affinities of certain of the compounds of Formula 1 at the central 5-HT1D binding sites were determined using a modification of the binding assay described by Heuring and Peroutka, J. Neurosci., 7, 894 (1987). Bovine brains were obtained and the caudate nuclei were dissected out and frozen at -70° C. until the time that the membranes were prepared for the binding assays. At that time the tissues were homogenized in 40 volumes of ice-cold Tris-HCl buffer (50 mM, pH 7.4 at 22° C.) with a Techmar Tissumizer (setting 65 for 15 sec), and the homogenate was centrifuged at 39,800× g for 10 minutes. The resulting pellet was then resuspended in the same buffer, and the centrifugation and resuspension process was repeated three additional times to wash the membranes. Between the second and third washes the resuspended membranes were incubated for 10 minutes at 37° C. to facilitate the removal of endogenous 5-HT. The final pellet was resuspended in the buffer to a concentration of 25 mg of original tissue wet weight/ml for use in the binding assay. […] The assay tubes were incubated for 10 minutes at 37° C. and the contents were then rapidly filtered through GF/B filters (pretreated with 0.5% polyethylenimine), followed by four 1 ml washes with ice-cold buffer. The radioactivity trapped by the filters was quantitated by liquid scintillation spectrometry, and specific [^3 H]5-HT binding to the 5-HT1D sites was defined as the difference between [^3 H]5-HT bound in the presence and absence of 10 μM 5-HT.
In Table 2, the first column provides the Example Number of the compound evaluated while the second column provides the amount of test compound (expressed in nanomolar concentration) required to inhibit the binding of [^3 H]5-HT by 50% (indicated as IC50).

How did the IC50 (5-HT1A receptor) turn out when `CCCN(CCC)[C@@H]1Cc2c(-c3ccno3)ccc3c2[C@H](CN3)C1` [Example 11, (-)(2aR,4S)-6-(5-isoxazolyl)-4-(di-n-propylamino)-1,2,2a,3,4,5-hexahydrobenz[cd]indole.2 HCl] was run?
Its IC50 is 2.08 nM.

And the IC50 (5-HT1D receptor)?
The IC50 was 1380 nM.

How did the IC50 (5-HT1A receptor) turn out when `CCCN(CCC)[C@@H]1Cc2c(-c3ccco3)ccc3c2[C@H](CN3)C1` [Example 13, (-)(2aR,4S)-6-(2-furyl)-4-(di-n-propylamino)-1,2,2a,3,4,5-hexahydrobenz[cd]indole] was run?
Its IC50 is 21.1 nM.

And the IC50 (5-HT1D receptor)?
Its IC50 is 1890 nM.

Which results are given for `CCCN(CCC)[C@H]1Cc2c(-c3ccccn3)ccc3c2[C@@H](CN3)C1` [Example 17, (+)(2aS, 4R)-6-(2-pyridyl)-4-(di-n-propylamino)-1,2,2a,3,4,5-hexahydrobenz[cd]indol]?
IC50 (5-HT1A receptor): 17.3 nM; IC50 (5-HT1D receptor): 163 nM

Which IC50 (5-HT1A receptor) does the source give for `CCCN(CCC)C1Cc2c(-c3ccno3)ccc3c2C(CN3)C1` (racemic) [Example 7, (±)-6-(5-isoxazolyl)-4-(di-n-propylamino)-1,2,2a,3,4,5-hexahydrobenz[cd]indole.2HCl] here?
Its IC50 is 1.95 nM.

What about the IC50 (5-HT1D receptor) of the same compound?
The IC50 was 23.6 nM.

With `CCCN(CCC)[C@H]1Cc2c(-c3ccno3)ccc3c2[C@@H](CN3)C1` [Example 10, (+)(2aS, 4R)-6-(5-isoxazolyl)-4-(di-n-propylamino)-1,2,2a,3,4,5-hexahydrobenz[cd]indole.2 HCl] as the compound, how does the IC50 (5-HT1A receptor) read?
The IC50 was 0.73 nM.

What about the IC50 (5-HT1D receptor) of the same compound?
Its IC50 is 11.2 nM.

What does the source list for `CCCN(CCC)[C@H]1Cc2c(-c3ccoc3)ccc3c2[C@@H](CN3)C1` [Example 15, (+)(2aS,4R)-6-(3-furyl)-4-(di-n-propylamino)-1,2,2a,3,4,5-hexahydrobenz[cd]indole]?
IC50 (5-HT1A receptor): 2.74 nM; IC50 (5-HT1D receptor): 19.4 nM

With `CCCN(CCC)[C@@H]1Cc2c(-c3nc(-c4ccccc4)no3)ccc3c2[C@H](CN3)C1` [Example 12, (2aR,4S)-6-(3-phenyl-1,2,4-oxadiazol-5-yl)-4-(di-n-propylamino)-1,2,2a,3,4,5-hexahydrobenz[cd]indole] as the compound, how does the IC50 (5-HT1A receptor) read?
The IC50 was 105 nM.

What does the source list for `CCCN(CCC)[C@H]1Cc2c(-c3cccnc3)ccc3c2[C@@H](CN3)C1` [Example 18, (+)(2aS,4R)-6-(3-pyridyl)-4-(di-n-propylamino)-1,2,2a,3,4,5-hexahydrobenz[cd]indole]?
IC50 (5-HT1A receptor): 1.92 nM; IC50 (5-HT1D receptor): 40.3 nM

Which IC50 (5-HT1A receptor) does the source give for `CCCN(CCC)[C@H]1Cc2c(-c3cc[nH]n3)ccc3c2[C@@H](CN3)C1` [Example 6, (+)(2aS,4R)-6-(3-pyrazolyl)-4-(di-n-propylamino)-1,2,2a,3,4,5-hexahydrobenz[cd]indole.2HCL] here?
Its IC50 is 6.37 nM.

And the IC50 (5-HT1D receptor)?
Its IC50 is 30 nM.

What does the source list for `CCCN(CCC)[C@H]1Cc2c(-c3ccco3)ccc3c2[C@@H](CN3)C1` [Example 14, (+)(2aS,4R)-6-(2-furyl)-4-(di-n-propylamino)-1,2,2a,3,4,5-hexahydrobenz[cd]indole]?
IC50 (5-HT1A receptor): 5.3 nM; IC50 (5-HT1D receptor): 43.1 nM

With `CCCN(CCC)[C@H]1Cc2c(-c3ccon3)ccc3c2[C@@H](CN3)C1` [Example 8, (+)(2aS,4R)-6-(3-isoxazolyl)-4-(di-n-propylamino)-1,2,2a,3,4,5-hexahydrobenz[cd]indole.2 HCl] as the compound, how does the IC50 (5-HT1A receptor) read?
Its IC50 is 0.91 nM.

And the IC50 (5-HT1D receptor)?
The IC50 was 9.12 nM.

Reference: patent publication US5627199A, “6-heterocyclic-4-amino-1,2,2A,3,4,5-hexahydrobenz [CD] indoles” (ELi Lilly and Company, priority 1995, dated 1997)
